Values of other authors, collected in paper PMC9851200, “Multiparameter phenotypic screening for endogenous TFEB and TFE3 translocation identifies novel chemical series modulating lysosome function” (Autophagy, 2022).

Key:
Design in all cases: method as in original PKIS2 published data
[1] = target: T1, kinases (KINOMEscan panel) (Homo sapiens, UniProt Q8IYT8); details: Published KINOMEscan; ref original PKIS2 published data; cited from earlier work
T1 sequence (Q8IYT8 1-1036): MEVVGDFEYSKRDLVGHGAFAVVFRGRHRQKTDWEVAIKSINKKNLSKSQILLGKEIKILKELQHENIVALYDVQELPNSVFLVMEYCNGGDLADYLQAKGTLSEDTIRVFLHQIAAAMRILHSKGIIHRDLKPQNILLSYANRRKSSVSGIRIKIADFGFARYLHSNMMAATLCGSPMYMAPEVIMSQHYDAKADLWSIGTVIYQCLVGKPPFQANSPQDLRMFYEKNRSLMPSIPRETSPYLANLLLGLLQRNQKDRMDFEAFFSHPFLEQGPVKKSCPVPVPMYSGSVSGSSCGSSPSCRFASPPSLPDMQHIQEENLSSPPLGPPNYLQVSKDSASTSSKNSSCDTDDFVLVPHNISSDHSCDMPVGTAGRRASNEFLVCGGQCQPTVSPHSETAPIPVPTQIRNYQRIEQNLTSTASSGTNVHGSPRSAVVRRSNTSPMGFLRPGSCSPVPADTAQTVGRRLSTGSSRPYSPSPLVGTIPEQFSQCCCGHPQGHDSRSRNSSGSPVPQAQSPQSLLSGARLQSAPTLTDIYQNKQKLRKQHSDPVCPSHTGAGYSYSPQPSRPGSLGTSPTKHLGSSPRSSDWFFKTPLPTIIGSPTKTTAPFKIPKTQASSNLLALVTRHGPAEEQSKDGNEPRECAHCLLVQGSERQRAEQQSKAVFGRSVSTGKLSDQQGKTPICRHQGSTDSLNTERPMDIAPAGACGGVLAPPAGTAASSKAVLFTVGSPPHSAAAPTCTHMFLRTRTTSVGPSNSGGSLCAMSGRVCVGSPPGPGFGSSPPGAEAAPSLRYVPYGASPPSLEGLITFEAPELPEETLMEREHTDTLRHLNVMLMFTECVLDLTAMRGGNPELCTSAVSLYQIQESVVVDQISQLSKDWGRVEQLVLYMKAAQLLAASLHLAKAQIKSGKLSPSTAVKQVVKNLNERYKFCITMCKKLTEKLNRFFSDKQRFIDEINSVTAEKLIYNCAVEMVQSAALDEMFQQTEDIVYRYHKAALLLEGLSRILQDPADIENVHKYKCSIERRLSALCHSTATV

[2] = target: T2, kinases (KINOMEscan panel) (Homo sapiens, UniProt Q9C098); details: kinase DCLK3; Published KINOMEscan; ref original PKIS2 published data; cited from earlier work
T2 sequence (Q9C098 1-648): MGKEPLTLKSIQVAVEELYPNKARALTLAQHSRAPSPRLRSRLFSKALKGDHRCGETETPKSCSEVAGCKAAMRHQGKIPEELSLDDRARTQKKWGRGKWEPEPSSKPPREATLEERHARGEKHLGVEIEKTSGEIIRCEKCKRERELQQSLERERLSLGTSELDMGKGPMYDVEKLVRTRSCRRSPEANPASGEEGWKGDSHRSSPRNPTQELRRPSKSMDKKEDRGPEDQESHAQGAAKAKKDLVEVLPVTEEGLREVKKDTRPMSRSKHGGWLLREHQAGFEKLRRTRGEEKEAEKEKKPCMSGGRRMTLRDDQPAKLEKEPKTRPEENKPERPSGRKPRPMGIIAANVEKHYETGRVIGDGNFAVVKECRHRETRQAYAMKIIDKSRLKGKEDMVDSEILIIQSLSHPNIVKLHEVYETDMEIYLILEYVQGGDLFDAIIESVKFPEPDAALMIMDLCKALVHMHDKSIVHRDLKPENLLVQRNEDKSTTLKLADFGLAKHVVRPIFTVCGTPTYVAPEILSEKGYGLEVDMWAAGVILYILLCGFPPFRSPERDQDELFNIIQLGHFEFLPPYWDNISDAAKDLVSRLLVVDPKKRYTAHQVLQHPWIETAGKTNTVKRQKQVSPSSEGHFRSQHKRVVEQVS

[3] = target: T3, kinases (KINOMEscan panel) (Homo sapiens, UniProt Q9HBY8); details: Published KINOMEscan; ref original PKIS2 published data; cited from earlier work
T3 sequence (Q9HBY8 1-367): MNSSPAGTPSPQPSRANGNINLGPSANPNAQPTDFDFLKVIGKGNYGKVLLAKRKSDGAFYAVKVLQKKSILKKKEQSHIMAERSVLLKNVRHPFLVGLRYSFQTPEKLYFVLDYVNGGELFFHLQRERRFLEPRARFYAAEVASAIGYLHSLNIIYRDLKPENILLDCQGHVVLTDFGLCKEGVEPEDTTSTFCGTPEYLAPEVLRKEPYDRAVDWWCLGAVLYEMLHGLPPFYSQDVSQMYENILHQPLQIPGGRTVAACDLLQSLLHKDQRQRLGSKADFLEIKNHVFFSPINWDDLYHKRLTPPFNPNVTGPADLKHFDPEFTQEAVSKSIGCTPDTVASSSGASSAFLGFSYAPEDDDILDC

Structure (SMILES): Cc1cccc(-c2nc(Nc3ccncc3)c3ccccc3n2)n1 [NK215]
- KINOMEscan ULK2 [1]: 0
- KINOMEscan DCLK3 [2]: 21
- KINOMEscan SGK2 [3]: 0
